What was measured:
Sialidase-1 = Sialidase-1 (Homo sapiens, UniProt Q99519); assay: Inhibition of human NEU1
Sialidase-3 = target: T1, Sialidase-3 (Homo sapiens, UniProt Q9UQ49); assay: Inhibition of human NEU3
T1 sequence (Q9UQ49 whole entry): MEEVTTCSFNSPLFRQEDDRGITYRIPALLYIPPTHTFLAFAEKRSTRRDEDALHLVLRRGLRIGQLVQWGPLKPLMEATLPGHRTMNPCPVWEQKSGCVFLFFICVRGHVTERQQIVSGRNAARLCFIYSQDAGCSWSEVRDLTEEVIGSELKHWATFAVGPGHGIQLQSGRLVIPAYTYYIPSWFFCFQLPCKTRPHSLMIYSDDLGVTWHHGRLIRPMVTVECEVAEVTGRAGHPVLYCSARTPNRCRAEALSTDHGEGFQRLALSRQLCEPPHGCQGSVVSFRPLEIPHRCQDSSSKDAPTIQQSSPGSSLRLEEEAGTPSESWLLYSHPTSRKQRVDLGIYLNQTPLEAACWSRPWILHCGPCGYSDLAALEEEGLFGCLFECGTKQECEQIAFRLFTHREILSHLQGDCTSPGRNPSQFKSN

Sialidase-4 = target: T2, Sialidase-4 (Homo sapiens, UniProt Q8WWR8); assay: Inhibition of human NEU4
T2 sequence (Q8WWR8 whole entry): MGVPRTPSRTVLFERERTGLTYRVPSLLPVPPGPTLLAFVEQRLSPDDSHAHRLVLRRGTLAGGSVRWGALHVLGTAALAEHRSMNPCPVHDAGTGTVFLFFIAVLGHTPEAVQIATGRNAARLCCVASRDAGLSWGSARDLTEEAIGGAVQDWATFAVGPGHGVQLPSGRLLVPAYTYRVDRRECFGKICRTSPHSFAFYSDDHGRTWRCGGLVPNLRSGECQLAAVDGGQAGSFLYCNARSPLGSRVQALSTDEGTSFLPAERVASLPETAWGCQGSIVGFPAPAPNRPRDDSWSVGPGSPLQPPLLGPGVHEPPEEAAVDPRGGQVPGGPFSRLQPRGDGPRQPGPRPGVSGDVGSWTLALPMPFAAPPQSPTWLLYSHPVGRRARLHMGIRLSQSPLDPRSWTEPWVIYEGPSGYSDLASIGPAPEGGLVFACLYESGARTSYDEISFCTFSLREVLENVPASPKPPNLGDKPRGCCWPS

Measured: IC50

CC(=O)N[C@H]1[C@H]([C@H](O)[C@H](O)CO)O[C@](O)(C(=O)O)C[C@@H]1O
> 500 µM: all assays above
